These are literature values, as cited in patent US7312207B2, “Topical steroid cream formulations” (Taro Pharmaceuticals North America, Inc., priority 2004, dated 2007).

Molecules are shown by their SMILES.

For the compound `C[C@@H]1C[C@H]2[C@@H]3CCC4=CC(=O)C=C[C@]4(C)[C@@]3(Cl)[C@@H](O)C[C@]2(C)[C@@]1(OC(=O)c1ccco1)C(=O)CCl` [Mometasone furoate, 9(alpha), 21-Dichloro-11(beta), 17-dihydroxy-16(alpha)-methylpregna-1,4-diene-3,20 dione 17-(2-furoate)], the “solubility in ethyl alcohol” value (ethyl alcohol) is given as “moderately soluble”. Besides, where the note is “octanol”, the solubility in octanol result was “slightly soluble”. The solubility in water entry (water) is “insoluble”.
